Each structure is given as a SMILES string.

The record followed here is patent US11168086B2, “Methods of synthesizing pyrazine compounds” (Hoffmann-La Roche Inc., priority 2015, dated 2021).

The test system of one assay is HBV. Put plainly: HBV inhibition assay: anti-HBV activity in vitro in HepG2.2.15 cells (extracellular HBV DNA by qPCR). The format is cell-based. As to conditions: Hepatitis B virus, 120 h, five days after compound treatment, extracellular HBV DNA in culture supernatant by qPCR, concentration at which HBV replication is inhibited by 50%. A digest of the protocol: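 HepG2.2.15 cells (stably carrying HBV genome) treated with half-log serially diluted compounds at 0.5% DMSO final for five days. Extracellular HBV DNA in supernatant quantified by qPCR after Proteinase K digestion; EC50 is concentration giving 50% inhibition of replication.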
Broadly, the EC50 is the midpoint of the concentration-response curve. Low readings indicate a more potent agent, high ones a less potent agent. Regarding `C[C@H]1Cn2ncc(N3CC(C(=O)N(C)c4ncco4)CC3=O)c2CN1C(=O)Nc1cc(F)c(F)c(F)c1` (stereo partly drawn) [Example 399, (6S)-6-methyl-3-[4-[methyl(oxazol-2-yl)carbamoyl]-2-oxo-pyrrolidin-1-yl]-N-(3,4,5-trifluorophenyl)-6,7-dihydro-4H-pyrazolo[1,5-a]pyrazine-5-carboxamide], the concentration for a half-maximal effect (EC50) stood at 19 nM.

In turn, `C[C@H]1Cn2ncc(N3CC(c4ccccc4)OC3=O)c2CN1C(=O)Nc1cc(F)c(F)c(F)c1` (stereo partly drawn) [Example 344, (6S)-6-methyl-3-(2-oxo-5-phenyl-oxazolidin-3-yl)-N-(3,4,5-trifluorophenyl)-6,7-dihydro-4H-pyrazolo[1,5-a]pyrazine-5-carboxamide] returned an EC50 of 7 nM.

Compound `C[C@H]1Cn2ncc(N3CC(O)CC3=O)c2CN1C(=O)Nc1ccc(F)c(Cl)c1` (stereo partly drawn) [Example 232, (6S)—N-(3-chloro-4-fluoro-phenyl)-3-(4-hydroxy-2-oxo-pyrrolidin-1-yl)-6-methyl-6,7-dihydro-4H-pyrazolo[1,5-a]pyrazine-5-carboxamide] yielded an EC50 of 49 nM. The same measure, in the same setting: to `C[C@H]1Cn2ncc(N3Cc4ccnn4CC3=O)c2CN1C(=O)Nc1cc(F)c(F)c(F)c1` [Example 419, (6S)-6-methyl-3-(6-oxo-4,7-dihydropyrazolo[1,5-a]pyrazin-5-yl)-N-(3,4,5-trifluorophenyl)-6,7-dihydro-4H-pyrazolo[1,5-a]pyrazine-5-carboxamide] belongs 71 nM.

`O=C(Nc1cc(F)c(F)c(F)c1)N1CCn2cnc(-c3ccc(F)cc3F)c2C1` [Example 138, 1-(2,4-difluorophenyl)-N-(3,4,5-trifluorophenyl)-6,8-dihydro-5H-imidazo[1,5-a]pyrazine-7-carboxamide] showed an EC50 of 37 nM. With `C[C@H]1Cn2ncc(N3CC(Nc4ncncc4F)CC3=O)c2CN1C(=O)Nc1cc(F)c(F)c(F)c1` (stereo partly drawn) [Example 270, (6S)-3-[4-[(5-fluoropyrimidin-4-yl)amino]-2-oxo-pyrrolidin-1-yl]-6-methyl-N-(3,4,5-trifluorophenyl)-6,7-dihydro-4H-pyrazolo[1,5-a]pyrazine-5-carboxamide], a half-maximal effect (EC50) was put at 17 nM.

`Cc1cnn(-c2cnn3c2CN(C(=O)Nc2ccc(F)c(Cl)c2)CC3)c1` [Example 171, N-(3-chloro-4-fluoro-phenyl)-3-(4-methylpyrazol-1-yl)-6,7-dihydro-4H-pyrazolo[1,5-a]pyrazine-5-carboxamide] had an EC50 of 45 nM. The same measure, in the same setting: to `C[C@H]1CN(C(=O)C2CC(=O)N(c3cnn4c3CN(C(=O)Nc3cc(F)c(F)c(F)c3)[C@@H](C)C4)C2)CCO1` (stereo partly drawn) [Example 395, (6S)-6-methyl-3-[4-[(2S)-2-methylmorpholine-4-carbonyl]-2-oxo-pyrrolidin-1-yl]-N-(3,4,5-trifluorophenyl)-6,7-dihydro-4H-pyrazolo[1,5-a]pyrazine-5-carboxamide] belongs 88 nM; to `C[C@H]1Cn2ncc(N3C[C@H](O)CC3=O)c2CN1C(=O)Nc1cc(F)c(F)c(F)c1` [Example 376, (6S)-3-[(4R)-4-hydroxy-2-oxo-pyrrolidin-1-yl]-6-methyl-N-(3,4,5-trifluorophenyl)-6,7-dihydro-4H-pyrazolo[1,5-a]pyrazine-5-carboxamide], 88 nM. Same read-out and setting: the value for `C[C@H]1Cn2ncc(N3CCCC3=O)c2CN1C(=O)Nc1cc(F)c(F)c(C(F)F)c1` [Example 239, (6S)—N-[3-(difluoromethyl)-4,5-difluoro-phenyl]-6-methyl-3-(2-oxopyrrolidin-1-yl)-6,7-dihydro-4H-pyrazolo[1,5-a]pyrazine-5-carboxamide] was 38 nM; that for `CC1Cn2ncc(N3CCCC3=O)c2CN1C(=O)Nc1ccc(F)c(Cl)c1` (centres unmarked) [Example 202, N-(3-chloro-4-fluoro-phenyl)-6-methyl-3-(2-oxopyrrolidin-1-yl)-6,7-dihydro-4H-pyrazolo[1,5-a]pyrazine-5-carboxamide] was 51 nM; that for `CC1Cn2ncc(-c3ccc(F)cc3)c2CN1C(=O)Nc1ccc(F)c(Cl)c1` (centres unmarked) [Example 61, N-(3-chloro-4-fluoro-phenyl)-3-(4-fluorophenyl)-6-methyl-6,7-dihydro-4H-pyrazolo[1,5-a]pyrazine-5-carboxamide] was 29 nM. Compound `C[C@@H]1[C@H](C)N(C(=O)Nc2cc(F)c(F)c(F)c2)Cc2c(N3CCCC3=O)cnn21` [Example 261, (6S,7R)-6,7-dimethyl-3-(2-oxopyrrolidin-1-yl)-N-(3,4,5-trifluorophenyl)-6,7-dihydro-4H-pyrazolo[1,5-a]pyrazine-5-carboxamide] yielded an EC50 of 40 nM. `C[C@H]1Cn2ncc(N3C[C@@H](C#N)CC3=O)c2CN1C(=O)Nc1cc(F)c(F)c(F)c1` [Example 240-2, (6S)-3-[(4S)-4-cyano-2-oxo-pyrrolidin-1-yl]-6-methyl-N-(3,4,5-trifluorophenyl)-6,7-dihydro-4H-pyrazolo[1,5-a]pyrazine-5-carboxamide] came in with an EC50 of 9 nM. Compound `C[C@H]1Cn2ncc(N3CC(N(C)c4ncccn4)CC3=O)c2CN1C(=O)Nc1cc(F)c(F)c(F)c1` (stereo partly drawn) [Example 363, (6S)-6-methyl-3-[4-[methyl(pyrimidin-2-yl)amino]-2-oxo-pyrrolidin-1-yl]-N-(3,4,5-trifluorophenyl)-6,7-dihydro-4H-pyrazolo[1,5-a]pyrazine-5-carboxamide] showed an EC50 of 9 nM.

`O=C(Nc1ccc(F)c(Cl)c1)N1CCn2ncc(-c3cc(C(F)(F)F)ccn3)c2C1` [Example 67, N-(3-chloro-4-fluoro-phenyl)-3-[4-(trifluoromethyl)-2-pyridyl]-6,7-dihydro-4H-pyrazolo[1,5-a]pyrazine-5-carboxamide] registered a 50% effective concentration (EC50) of 29 nM.

As to `CCC1CC(=O)N(c2cnn3c2CN(C(=O)Nc2ccc(F)c(Cl)c2)[C@@H](C)C3)C1` (stereo partly drawn) [Example 302, (6S)—N-(3-chloro-4-fluoro-phenyl)-3-(4-ethyl-2-oxo-pyrrolidin-1-yl)-6-methyl-6,7-dihydro-4H-pyrazolo[1,5-a]pyrazine-5-carboxamide], the EC50 was 20 nM. `CC1Cn2ncc(-c3ccc(F)cn3)c2CN1C(=O)Nc1ccc(F)c(C#N)c1` (centres unmarked) [Example 100, N-(3-cyano-4-fluoro-phenyl)-3-(5-fluoro-2-pyridyl)-6-methyl-6,7-dihydro-4H-pyrazolo[1,5-a]pyrazine-5-carboxamide] came in with an EC50 of 61 nM. In turn, `CC1Cn2ncc(-c3ccc(F)cc3F)c2CN1C(=O)Nc1ccnc(F)c1` (centres unmarked) [Example 174, 3-(2,4-difluorophenyl)-N-(2-fluoro-4-pyridyl)-6-methyl-6,7-dihydro-4H-pyrazolo[1,5-a]pyrazine-5-carboxamide] returned a concentration giving a half-maximal response (EC50) of 66 nM. Compound `C[C@H]1Cn2ncc(N3CC(C)(C)CC3=O)c2CN1C(=O)Nc1ccc(F)c(Cl)c1` [Example 257, (6S)—N-(3-chloro-4-fluoro-phenyl)-3-(4,4-dimethyl-2-oxo-pyrrolidin-1-yl)-6-methyl-6,7-dihydro-4H-pyrazolo[1,5-a]pyrazine-5-carboxamide] yielded an EC50 of 15 nM. Compound `CC1CCOC(=O)N1c1cnn2c1CN(C(=O)Nc1cc(F)c(F)c(F)c1)[C@@H](C)C2` (stereo partly drawn) [Example 426, (6S)-6-methyl-3-(4-methyl-2-oxo-1,3-oxazinan-3-yl)-N-(3,4,5-trifluorophenyl)-6,7-dihydro-4H-pyrazolo[1,5-a]pyrazine-5-carboxamide] displayed an EC50 of 29 nM. On the same count and under the same terms, to `C[C@H]1Cn2ncc(N3CC(c4cocn4)CC3=O)c2CN1C(=O)Nc1cc(F)c(F)c(F)c1` (stereo partly drawn) [Example 352, (6S)-6-methyl-3-(4-oxazol-4-yl-2-oxo-pyrrolidin-1-yl)-N-(3,4,5-trifluorophenyl)-6,7-dihydro-4H-pyrazolo[1,5-a]pyrazine-5-carboxamide] belongs 14 nM; to `Cc1cc(NC(=O)N2CCn3ncc(-c4ccc(F)cc4)c3C2)ccn1` [Example 176, 3-(4-fluorophenyl)-N-(2-methyl-4-pyridyl)-6,7-dihydro-4H-pyrazolo[1,5-a]pyrazine-5-carboxamide], 52 nM.

Compound `CC1CN(c2cnn3c2CN(C(=O)Nc2ccc(F)c(Cl)c2)[C@@H](C)C3)C(=O)O1` (stereo partly drawn) [Example 321, (6S)—N-(3-chloro-4-fluoro-phenyl)-6-methyl-3-(5-methyl-2-oxo-oxazolidin-3-yl)-6,7-dihydro-4H-pyrazolo[1,5-a]pyrazine-5-carboxamide] returned an EC50 of 47 nM. The compound `C[C@H]1Cn2ncc(N3CC(C)(C)OCC3=O)c2CN1C(=O)Nc1ccc(F)c(Cl)c1` [Example 371, (6S)—N-(3-chloro-4-fluoro-phenyl)-3-(2,2-dimethyl-5-oxo-morpholin-4-yl)-6-methyl-6,7-dihydro-4H-pyrazolo[1,5-a]pyrazine-5-carboxamide] showed an EC50 of 20 nM. On to `C[C@H]1Cn2ncc(N3C[C@@H](c4cnco4)OCC3=O)c2CN1C(=O)Nc1cc(F)c(F)c(F)c1` [Example 407, (6S)-6-methyl-3-[(2S)-2-oxazol-5-yl-5-oxo-morpholin-4-yl]-N-(3,4,5-trifluorophenyl)-6,7-dihydro-4H-pyrazolo[1,5-a]pyrazine-5-carboxamide], for which the midpoint of the response, the EC50, lay at 24 nM. The compound `Cc1nnc(C2CC(=O)N(c3cnn4c3CN(C(=O)Nc3cc(F)c(F)c(F)c3)[C@@H](C)C4)C2)o1` (stereo partly drawn) [Example 283, (6S)-6-methyl-3-[4-(5-methyl-1,3,4-oxadiazol-2-yl)-2-oxo-pyrrolidin-1-yl]-N-(3,4,5-trifluorophenyl)-6,7-dihydro-4H-pyrazolo[1,5-a]pyrazine-5-carboxamide] yielded an EC50 of 47 nM. The same measure, in the same setting: to `C[C@H]1Cn2ncc(N3CC(C)(C(=O)N4CCC(F)(F)CC4)CC3=O)c2CN1C(=O)Nc1cc(F)c(F)c(F)c1` (stereo partly drawn) [Example 401, (6S)-3-[4-(4,4-difluoropiperidine-1-carbonyl)-4-methyl-2-oxo-pyrrolidin-1-yl]-6-methyl-N-(3,4,5-trifluorophenyl)-6,7-dihydro-4H-pyrazolo[1,5-a]pyrazine-5-carboxamide] belongs 88 nM.

Staying with this assay, now noted: five days after compound treatment, extracellular HBV DNA in culture supernatant by qPCR, concentration at which HBV replication is inhibited by 50%.
Take `CC1C(C#N)CC(=O)N1c1cnn2c1CN(C(=O)Nc1cc(F)c(F)c(F)c1)[C@@H](C)C2` (single isomer, unassigned) [Example 420-1]: the EC50 is 27 nM.
